Counter-ions that a name gives are not always drawn. Like-named read-outs stand apart in the source and are kept apart here.
Key:
UV4 cells = assay: cells; assay type: cell-based; conditions: Cricetulus griseus
SKOV3 cells = assay: cells; assay type: cell-based; conditions: Homo sapiens
[1] = UV4, light or radiation study, 4 h, read-out: IC50, P (unirradiated prodrug)
[2] = SK-OV-3, light or radiation study, 4 h, read-out: IC50, P (unirradiated prodrug)
[3] = SK-OV-3, 4 h, read-out: IC50, E (authentic effector)
[4] = UV4, 4 h, read-out: IC50, E (authentic effector)

SMILES	IC50 (UV4 cells; [1])	IC50 (SKOV3 cells; [2])	IC50 (SKOV3 cells; [3])	IC50 (UV4 cells; [4])
Cc1cccc2c(N)c3cccc(C(=O)NCC[N+](C)(C)Cc4ccc([N+](=O)[O-])s4)c3nc12 [Compound 19, 2-[N-(9-amino-5-methylacridin-4-yl)carbonyl]aminoethyl-(dimethyl)-5-nitro-2-thienylmethylammonium chloride]	0.16 ± 0.03 µM			
C[N+](C)(CCNC(=O)c1cccc2cc3ccccc3nc12)Cc1ccc([N+](=O)[O-])s1 [Compound 16, 2-[N-(acridin-4-yl)carbonyl]aminoethyl-(dimethyl)-(5-nitro-2-thienyl)methylammonium chloride]	40 ± 8 µM	169 ± 58 µM		
Cc1cccc2c(N)c3cccc(C(=O)NCCN(C)C)c3nc12 [Compound 38, (N,N-dimethylaminoethyl)-9-amino-5-methylacridine-4-carboxamide, reference compound]			0.046 ± 0.002 µM	0.011 µM
Cc1cccc2c(N)c3cccc(C(=O)NCC[N+](C)(C)Cc4ccc([N+](=O)[O-])n4C)c3nc12 [Compound 21, 2-(N-[9-amino-5-methylacridin-5-yl]carbonyl)aminoethyl-(dimethyl)[1-methyl-5-nitro-2-pyrrolyl]methylammonium chloride]	2 ± 0.4 µM			
CN(C)CCNc1ccc(NCC[N+](C)(C)Cc2ccc([N+](=O)[O-])cc2)c2c1C(=O)c1c(O)ccc(O)c1C2=O [Compound 27, 1-[(2-(4-nitrobenzyl)dimethylammonium)ethylamino]-4-[(2-dimethylamino)ethylamino]-5,8-dihydroxy-9,10-anthracenedione chloride]	0.27 ± 0.04 µM	9.7 µM		
NCCNCCCNC(=O)c1cccc2cc3ccccc3nc12 [Compound 47, N-[3-[(2-Aminoethyl)amino]propyl]acridine-4-carboxamide trihydrochloride, reference compound]			1.6 ± 0.3 µM	1.6 ± 0.4 µM
Cc1cccc2c(N)c3cccc(C(=O)NCC[N+](C)(C)Cc4c([N+](=O)[O-])ncn4C)c3nc12 [Compound 22, 2-(N-[9-amino-5-methylacridin-4-yl]carbonyl)aminoethyl-(dimethyl)-(1-methyl-4-nitro-5-imidazolyl)methylammonium chloride]	1.9 ± 0.4 µM			
Cc1cccc2c(N)c3cccc(C(=O)NCC[N+](C)(C)Cc4nc(N5CCOCC5)sc4[N+](=O)[O-])c3nc12 [Compound 20, 2-[N-(9-amino-5-methylacridin-4-yl)carbonyl]aminoethyl-(dimethyl)-2-[4-morpholino-5-nitro-4-thiazolylmethyl]ammonium chloride]	1 ± 0.3 µM			
Cc1cccc2c(N)c3cccc(C(=O)NCC[N+](C)(C)Cc4ccc([N+](=O)[O-])cc4)c3nc12 [Compound 17, 2-[N-(9-amino-5-methylacridin-4-yl)carbonyl]aminoethyl-(dimethyl)-4-nitrobenzylammonium bromide]	0.78 µM	4 ± 0.1 µM		
CN(C)CCNC(=O)c1cccc2cc3ccccc3nc12 [Compound 37, N-[(dimethylamino)ethyl]acridine-4-carboxamide, reference compound]			3.4 ± 0.8 µM	0.49 ± 0.11 µM
Cc1cccc2c(N)c3cccc(C(=O)NCC[N+](C)(C)Cc4ccccc4[N+](=O)[O-])c3nc12 [Compound 18, 2-[N-(9-amino-5-methylacridin-4-yl)carbonyl]aminoethyl-(dimethyl)-2-nitrobenzyl]ammonium chloride]	3.1 µM			
CN(C)CCNc1ccc(NCCN(C)C)c2c1C(=O)c1c(O)ccc(O)c1C2=O [Compound 46, 1,4-bis[(2-dimethylamino)-ethylamino]-5,8-dihydroxy-9,10-anthracenedione, reference compound]			0.074 ± 0.0004 µM	0.0021 µM
C[N+](C)(CCNC(=O)c1cccc2cc3ccccc3nc12)Cc1ccc([N+](=O)[O-])cc1 [Compound 15, 2-[N-(acridin-4-yl)carbonyl]aminoethyl-(dimethyl)-4-nitrobenzylammonium bromide]	> 150 µM	> 150 µM		
CN(C)c1ccc2c(c1)N(S(C)(=O)=O)CC2CCl (centres unmarked) [Compound 12, reference compound]				15 ± 6 µM
C[N+](C)(Cc1ccc([N+](=O)[O-])cc1)c1ccc2c(c1)N(S(C)(=O)=O)CC2CCl (centres unmarked) [Compound 11, 3-(chloromethyl)-6-[N,N-dimethyl-N-(4-nitrobenzyl)-ammonio]-1-(methanesulfonyl)indoline chloride]	1140 ± 122 µM			

Source: patent US6071908A (priority 1995, dated 2000)
